Reference: the supplement of paper PMC10733146

What was measured:
Experiment in all cases: viability relative to DMSO control (fraction); higher = less drug effect (more viable cells)
Settings in all cases: 48 h
[1] = test system: primary MCL patient cells (S041)
Summary of the method: (§1)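 Primary mononuclear tumour cells (Ficoll-isolated from blood or bone marrow, or processed lymph node; fresh or cryopreserved) were plated at 4 × 10^4 cells per well in 384-well plates with pre-plated compounds at five concentrations, one well each. Medium was RPMI-1640 with penicillin/streptomycin, L-glutamine and human serum, at 37 °C and 5% CO2 for 48 h. Viability was read as CellTiter-Glo luminescence relative to the median of 16 inner DMSO wells.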

[2] = test system: primary MCL patient cells (S053)
Summary of the method: as §1

[3] = test system: primary BL patient cells (S005)
Summary of the method: as §1

[4] = test system: primary B-PLL patient cells (S016)
Summary of the method: as §1

[5] = test system: primary AML patient cells (S071)
Summary of the method: as §1

[6] = test system: primary AML patient cells (S060)
Summary of the method: as §1

[7] = test system: primary MCL patient cells (S063)
Summary of the method: as §1

[8] = test system: primary AML patient cells (S006)
Summary of the method: as §1

[9] = test system: primary CLL patient cells (S043)
Summary of the method: as §1

[10] = test system: primary AML patient cells (S079)
Summary of the method: as §1

[11] = test system: primary FL patient cells (S087)
Summary of the method: as §1

[12] = test system: primary AML patient cells (S012)
Summary of the method: as §1

[13] = test system: primary AML patient cells (S085)
Summary of the method: as §1

[14] = test system: primary AML patient cells (S072)
Summary of the method: as §1

[15] = test system: primary AML patient cells (S009)
Summary of the method: as §1

[16] = test system: primary AML patient cells (S056)
Summary of the method: as §1

[17] = test system: primary AML patient cells (S017)
Summary of the method: as §1

[18] = test system: primary ALL patient cells (S088)
Summary of the method: as §1

[19] = test system: primary DLBCL patient cells (S082)
Summary of the method: as §1

[20] = test system: primary CLL patient cells (S031)
Summary of the method: as §1

CC(C)(C)C[C@@H]1N[C@@H](C(=O)N[C@H]2CC[C@H](O)CC2)[C@H](c2cccc(Cl)c2F)[C@]12C(=O)Nc1cc(Cl)ccc12 [MI-773]
viability ([1]; 0.008 µM): 1.02 | viability ([1]; 0.04 µM): 0.976 | viability ([1]; 0.2 µM): 0.92 | viability ([1]; 1 µM): 0.752 | viability ([1]; 5 µM): 0.434 | viability ([2]; 0.008 µM): 1.11 | viability ([2]; 0.04 µM): 0.915 | viability ([2]; 0.2 µM): 0.755 | viability ([2]; 1 µM): 0.424 | viability ([2]; 5 µM): 0.347 | viability ([3]; 0.008 µM): 0.915 | viability ([3]; 0.04 µM): 0.744 | viability ([3]; 0.2 µM): 0.789 | viability ([3]; 1 µM): 0.897 | viability ([3]; 5 µM): 0.903 | viability ([4]; 0.008 µM): 0.954 | viability ([4]; 0.04 µM): 0.858 | viability ([4]; 0.2 µM): 0.771 | viability ([4]; 1 µM): 0.568 | viability ([4]; 5 µM): 0.0958 | viability ([5]; 0.008 µM): 0.991 | viability ([5]; 0.04 µM): 0.732 | viability ([5]; 0.2 µM): 0.32 | viability ([5]; 1 µM): 0.132 | viability ([5]; 5 µM): 0.0874 | viability ([6]; 0.008 µM): 1.06 | viability ([6]; 0.04 µM): 0.997 | viability ([6]; 0.2 µM): 1.09 | viability ([6]; 1 µM): 0.99 | viability ([6]; 5 µM): 1.09 | viability ([7]; 0.008 µM): 1.07 | viability ([7]; 0.04 µM): 1.05 | viability ([7]; 0.2 µM): 0.995 | viability ([7]; 1 µM): 0.705 | viability ([7]; 5 µM): 0.246 | viability ([8]; 0.008 µM): 0.915 | viability ([8]; 0.04 µM): 0.761 | viability ([8]; 0.2 µM): 0.481 | viability ([8]; 1 µM): 0.194 | viability ([8]; 5 µM): 0.0491 | viability ([9]; 0.008 µM): 1.05 | viability ([9]; 0.04 µM): 0.949 | viability ([9]; 0.2 µM): 1 | viability ([9]; 1 µM): 0.879 | viability ([9]; 5 µM): 0.441 | viability ([10]; 0.008 µM): 1.01 | viability ([10]; 0.04 µM): 1.01 | viability ([10]; 0.2 µM): 1.01 | viability ([10]; 1 µM): 0.901 | viability ([10]; 5 µM): 0.636 | viability ([11]; 0.008 µM): 1 | viability ([11]; 0.04 µM): 0.99 | viability ([11]; 0.2 µM): 0.937 | viability ([11]; 1 µM): 0.849 | viability ([11]; 5 µM): 0.694 | viability ([12]; 0.008 µM): 0.96 | viability ([12]; 0.04 µM): 0.971 | viability ([12]; 0.2 µM): 0.937 | viability ([12]; 1 µM): 0.976 | viability ([12]; 5 µM): 1.02 | viability ([13]; 0.008 µM): 1.08 | viability ([13]; 0.04 µM): 0.972 | viability ([13]; 0.2 µM): 0.849 | viability ([13]; 1 µM): 0.481 | viability ([13]; 5 µM): 0.204 | viability ([14]; 0.008 µM): 1.06 | viability ([14]; 0.04 µM): 0.843 | viability ([14]; 0.2 µM): 0.934 | viability ([14]; 1 µM): 0.775 | viability ([14]; 5 µM): 0.762 | viability ([15]; 0.008 µM): 0.894 | viability ([15]; 0.04 µM): 0.755 | viability ([15]; 0.2 µM): 0.698 | viability ([15]; 1 µM): 0.56 | viability ([15]; 5 µM): 0.524 | viability ([16]; 0.008 µM): 1.03 | viability ([16]; 0.04 µM): 0.9 | viability ([16]; 0.2 µM): 0.696 | viability ([16]; 1 µM): 0.296 | viability ([16]; 5 µM): 0.117 | viability ([17]; 0.008 µM): 1.06 | viability ([17]; 0.04 µM): 0.896 | viability ([17]; 0.2 µM): 0.806 | viability ([17]; 1 µM): 0.877 | viability ([17]; 5 µM): 0.834 | viability ([18]; 0.008 µM): 1 | viability ([18]; 0.04 µM): 0.88 | viability ([18]; 0.2 µM): 0.701 | viability ([18]; 1 µM): 0.366 | viability ([18]; 5 µM): 0.151 | viability ([19]; 0.008 µM): 1.07 | viability ([19]; 0.04 µM): 0.971 | viability ([19]; 0.2 µM): 1.14 | viability ([19]; 1 µM): 0.98 | viability ([19]; 5 µM): 1.03 | viability ([20]; 0.008 µM): 0.97 | viability ([20]; 0.04 µM): 0.819 | viability ([20]; 0.2 µM): 0.593 | viability ([20]; 1 µM): 0.439 | viability ([20]; 5 µM): 0.0647
